Experimental data as given in US20230167068A1, “BENZOPYRAZOLE COMPOUND” (MEDSHINE DISCOVERY INC., priority 2019, published 2023).
Like-named read-outs stand apart in the source and are kept apart here.

Assays:
[1] = test system: human peripheral blood mononuclear cells TNF-α; assay: Repression of TNF-α in human peripheral blood mononuclear cells (LPS, ELISA); type: cell-based; conditions: PBMC, 3-fold diluted; for IC50: read-out: hPBMC IC50; for Emax: maximum effect value
Experimental: Experimental purpose: To express the anti-inflammatory activity of the test compound at the cellular level according to the level of TNF-α in human peripheral blood mononuclear cells (hPBMC).
• [0488] 1) The frozen cells were quickly thawed by continuous stirring in a 37° C. water bath. • [0489] 2) 25 mL of fresh pre-heated thawed culture medium was added to a 50 mL centrifuge tube. Then the cells were added gently, drop by drop. • [0490] 3) Cells were centrifuged at 2000 rpm for 10 min (ascending speed: 9, descending speed: 1). • [0491] 4) The supernatant was discarded and the cell particles were resuspended in 25 mL of freshly pre-heated RPMI 1640 culture medium.
• [0493] 5) After thawing and resuscitating the suspended cells, the number of cells was counted and the total number of cells required for the experiment was calculated. • [0494] 6) The cell suspension was diluted with an appropriate volume of cell culture medium. • [0495] 7) The cell suspension was poured into a sterile disposable container. • [0496] 8) 100,000 cells/(100 µL) of cell suspension was transferred to each well of a 96-well plate. • [0497] 9) The cell plates were placed in humidified air, 5% CO2 incubator, 37° C. for 2 hours.
[…] In the second step, the serum-free culture medium was diluted 125 times, and the concentration of DMSO was 0.8%. Then 16.8 µL of the compound diluted in culture medium was transferred to a 100 µL cell plate, and the concentration of DMSO was 0.114%.
After adding the compound, the cell plates were incubated in a 37° C. 5% CO2 incubator for 1 hour.
In the first step, LPS was diluted with ultrapure water to a storage concentration of 1 mg/mL. In the second step, the storage concentration of LPS was diluted to 1 µg/mL in serum-free culture medium. In the third step, serum-free culture medium was 1666.666-fold diluted. Then 16.8 µL of LPS that has been diluted with culture medium was transferred to a 116.8 µL cell plate. At this time, the final concentration of DMSO was 0.1%. After adding LPS, the cell plate was put into a 37° C., 5% CO2 incubator and incubated for 18 hours.
• [0505] 1. The TNF-α antibody was diluted to 1× in the coating solution, and then 100 µL per well was added to a 96-well high-binding performance plate, and the plate was sealed with a membrane and placed at 4° C. for 18 hours. • [0506] 2. 2000 mL of wash buffer was prepared to 1x for later use.
• [0508] 3. After the plate was coated overnight, the coating solution was poured out and washed 3 times with 300 µL of washing buffer per well. • [0509] 4. After the plate was washed, 200 µL of sealing buffer was added to each well, and the plate was sealed with membrane. Incubated for one hour in a 25° C. incubator. • [0510] 5. The cell plates incubated for 18 hours were placed in a centrifuge for centrifugation, temperature: 25° C., speed: 2000 rpm, time: 10 min, ascending speed: 9, descending speed: 1. After centrifugation, 100 µL of cell supernatant from each well was transferred to a 3599 cell plate, and then placed in a 4° C. refrigerator for later use. • [0511] 6. The cell supernatant was diluted 40 times with sealing buffer and placed in a 4° C. refrigerator for later use, and the standard was also placed in a 4° C. refrigerator for later use. • [0512] 7. After the sealing was completed, the sealing solution was poured out and washed three times with 300 µL of washing buffer per well. • [0513] 8. The diluted cell supernatant samples and standards were added to the ELISA plate, and the plate was sealed with membrane. Then incubated for 2 hours in a 25° C. incubator. • [0514] 9. The liquid in the plate was poured out and washed 5 times with 300 µL of washing buffer per well. • [0515] 10. Antibodies were prepared and 100 µL was added to each well and the plate was sealed with sealing membrane. Then incubated for one hour in a 25° C. incubator. • [0516] 11. The liquid in the plate was poured out and washed 7 times with 300 µL of washing buffer per well. • [0517] 12. […]

[2] = test system: hMMP-1 promoter reporter gene in Hela cells (GR transcription repression); assay: hMMP1 transcription repression activity, luciferase reporter gene screening system (hMMP1 GR transcription repression test); type: cell-based; conditions: Homo sapiens; for Emax: HeLa, maximum effect value, positive control 1000 nM dexamethasone, read-out: TR (hMMP1 transcription inhibition activity) Effect; for IC50: absolute IC50, HeLa hMMP-1/luciferase cells, 10 nM PMA, 18 h, max concentration 1000 nM, read-out: TR (hMMP1 transcription inhibition activity) IC50
Source text: Human MMP-1 promoter region (containing two AP-1 binding sites and two PEA3 sites, a total of 249bp, GenBank catalog #AF023338) was cloned into the upstream of luciferase reporter gene. The hMMP-1 promoter reporter gene was constructed and transfected into Hela cells so that luciferase production could be easily detected. A stable recombinant hMMP-⅟luciferase cell line was used for the development and validation of this experiment.
• [0377] 1) All the culture media were carefully aspirated, and the cell layer was rinsed gently with an appropriate amount of DPBS, and then aspirated. • [0378] 2) An appropriate amount of 0.05% Typsine EDTA was added and incubated in a CO2 incubator for 3-5 minutes to digest the cells. • [0379] 3) The cells were resuspended with an appropriate amount of cell culture medium. • [0380] 4) The required amount of cells were calculated. The cell concentration was 5x10^3 cells/well. • [0381] 5) The cell suspension was diluted with appropriate cell culture medium. • [0382] 6) The cell suspension was dispensed into a disposable sterile loading slot. • [0383] 7) Inoculated 30µL per well into a 384-well plate. • [0384] 8) The cell plate was placed in a 37° C. 5% CO2 incubator for 18-24 hours.
The final DMSO concentration was 0.1%. PMA needs to be protected from light during use.
hMMP1 GR transcription repression activity test • [0395] 1) Inoculated cells: Fresh cells were inoculated into 384 white experimental plates at 5x10^3 cells/30µL/well, and incubated in a 5% CO2 incubator at 37° C. for 24 hours. • [0396] 2) Compound preparation: The compound plate was prepared before the experiment, and the reference compound (dexamethasone) and the tested compound of 10x concentration were prepared. Finally, the experimental plate of 10× concentration compound was obtained. • [0397] 3) Added compound: 3.3 µL of 10x compound was transferred with Bravo and added to cell plate. Incubated for 18 hours in a 5% CO2 incubator at 37° C. • [0398] 4) 30 µL of Bright-Glo fluorescent detection reagent was transferred to the cell plate. • [0399] 5) Centrifugal incubation for 2 minutes. • [0400] 6) The fluorescence value was measured with the Envision plate reader.
Positive Control: 10 nM PMA + 1000 nM dexamethasone (0.1% DMSO)
Negative control: 10 nM PMA (0.1% DMSO)
Test compound: Maximum concentration of 1000 nM, 4-fold dilution, 10 wells in total, repeated.
Dexamethasone: Maximum concentration of 1000 nM, 4-fold dilution, 10 wells in total, repeated.
The graphing software GraphPad Prism5 was used to create the concentration curves of the test compounds and calculate the IC50 values.

[3] = absolute IC50, test Top concentration 1000 nM, 8 concentration (*)
[4] = test Top concentration 1000 nM, 8 concentration (*)
[5] = absolute IC50, test Top concentration 100 nM, 8 concentration (***)
[6] = test Top concentration 100 nM, 8 concentration (***)
[7] = absolute IC50, test Top concentration 10000 nM, 8 concentration (unmarked)
[8] = test Top concentration 10000 nM, 8 concentration (unmarked)

SMILES	IC50 [1, 3]	Emax [1, 4]	Emax [2]	IC50 [2]	IC50 [1, 5]	Emax [1, 6]	IC50 [1, 7]	Emax [1, 8]	IC50 ([1]; absolute IC50, test Top concentration 500 nM, 8 concentration (**))	Emax ([1]; test Top concentration 500 nM, 8 concentration (**))
CC(C)[C@H](NC(=O)C(C)(F)F)[C@H](Oc1ccc2c(cnn2-c2ccc3nccn3c2)c1)c1ccccc1 [WX004]	15.9 nM	78.5%	78.8%	3.58 nM						
C[C@H](NC(=O)C(C)(F)F)[C@H](Oc1ccc2c(cnn2-c2ccc3nncn3c2)c1)c1cc(F)cc(F)c1 [WX019]			94.8%	0.171 nM	0.98 nM	90%				
CC(C)[C@H](NC(=O)C(C)(F)F)[C@H](Oc1ccc2c(cnn2-c2ccc3nncn3c2)c1)c1cc(F)cc(F)c1 [WX017]			86%	0.9 nM			7.63 nM	83.1%		
C[C@H](NC(=O)C(C)(F)F)[C@H](Oc1ccc2c(cnn2-c2ccc3ncnn3c2)c1)c1cc(F)cc(F)c1 [WX034]	12.6 nM	79.3%	97.1%	3.22 nM						
C[C@H](NC(=O)C(C)(F)F)[C@H](Oc1ccc2c(cnn2-c2ccc3nnnn3c2)c1)c1cc(F)cc(F)c1 [WX035]	11.6 nM	100%	94.6%	2.15 nM						
C[C@H](NC(=O)C(C)(F)F)[C@H](Oc1ccc2c(cnn2-c2cnn(C)c2)c1)c1ccccc1 [WX043]	4.9 nM	88.8%	93.3%	1.21 nM						
CC(C)[C@H](NC(=O)C(C)(F)F)[C@H](Oc1ccc2c(cnn2-c2ccc3nncn3c2)c1)c1ccccc1 [WX018]	18.6 nM	69.3%	83.7%	6.1 nM						
C[C@H](NC(=O)C(C)(F)F)[C@H](Oc1ccc2c(cnn2-c2ccc3c(c2)CCCO3)c1)c1cc(F)cc(F)c1 [WX002]			100%	0.318 nM			15.1 nM	84.6%		
C[C@H](NC(=O)C(C)(F)F)[C@H](Oc1ccc2c(cnn2-c2cn(C)nn2)c1)c1cc(F)cc(F)c1 [WX051]			95.4%	3.45 nM					10.4 nM	74.9%
C[C@H](NC(=O)C(C)(F)F)[C@H](Oc1ccc2c(cnn2-c2ccc3nccn3c2)c1)c1cc(F)cc(F)c1 [WX003]			95.1%	0.08 nM	0.97 nM	84.3%				
